# Measured values reported in patent US9499529B2 (California State University Fresno, priority 2013, dated 2016).
# Key:
# Type in all cases: cell-based, human
# [1] = test system: DU-145 prostate cancer cells; assay: In vitro cytotoxicity against DU-145 prostate cancer cells; conditions: DU-145 cells; for IC50: five days
# Method: (§1) The half maximal inhibitory concentration (IC50) is a measure of the effectiveness of a substance in inhibiting a specific biological or biochemical function. It is commonly used as a measure of antagonist drug potency.
# Cell numbers were counted with a cell viability analyzer (Beckman-Coulter).
# (§2) A preliminary dose response curve was prepared from the collected data by means well known to those of ordinary skill in the art.
# (§3) The six different concentrations fell within a selected linear concentration range determined by reference to the preliminary dose response curve and efforts to estimate the concentration at which 50% of the cell growth would be inhibited. The selected six different concentrations were used to further fill out the dose response curve to pinpoint a more exact IC50 value.
# [2] = test system: HeLa cervical cancer cells; assay: HeLa cell viability after treatment with analog (cell count, cell viability analyzer)
# Method: Cell numbers were counted with a cell viability analyzer (Beckman-Coulter). The ratio of drug treated viable cell numbers to control vehicle (DMSO) treated viable cell numbers was defined as percentage viability. […] Compound nos.
# The HeLa cells used in the experiments summarized by Table 5 were cultured in RPMI-1640 medium supplemented with 10% FBS, 4 mM glutamine, 1 mM sodium pyruvate, 100 IU/mL penicillin, 100 ug/mL streptomycin and 0.25 ug/mL amphotericin. The HeLa cells were plated in 24-well plates at a density of 20,000 cells in each well in 10% FBS RPMI-1640. […] Cell numbers were counted with a cell viability analyzer (Beckman-Coulter). […]
# [3] = test system: PC-3 prostate cancer cells; assay: In vitro cytotoxicity against PC-3 prostate cancer cells; conditions: PC-3 cells; for IC50: five days
# Method: as §1
# Cell cultures were maintained in 5% carbon dioxide at a temperature of 37° C. […] Cell numbers were counted with a cell viability analyzer (Beckman-Coulter). […] A preliminary dose response curve was prepared from the collected data by means well known to those of ordinary skill in the art.
# as §3
# [4] = test system: HeLa cervical cancer cells; assay: In vitro cytotoxicity against HeLa cervical cancer cells; conditions: for IC50: three days
# Method: as §1
# Cell numbers were counted with a cell viability analyzer (Beckman-Coulter). The ratio of drug treated viable cell numbers to vehicle treated viable cell numbers was defined as percentage viability.
# as §2, §3
# [5] = 1 μM, three days, relative to DMSO vehicle
# [6] = 10 μM, three days, relative to DMSO vehicle
# [7] = Homo sapiens, HeLa, 72 h, read-out: HeLa Cell viability after treatment with analog (% viability)
SMILES,IC50 [1] [µM],"HeLa Cell viability after treatment with analog (% viability) [2, 5] [%]","HeLa Cell viability after treatment with analog (% viability) [2, 6] [%]",IC50 (curcumin)/IC50 (analog) [3],IC50 [3] [nM],IC50 (curcumin)/IC50 (analog) [1],IC50 (curcumin)/IC50 (analog) [4],IC50 [4] [nM],HeLa Cell viability after treatment with analog (% viability) ([2]; 10 µM) [%],"viability at 1 µM [2, 7] [%]","viability at 10 µM [2, 7] [%]"
CC(C)n1ccnc1C=C1CN(C)CC(=Cc2nccn2C(C)C)C1=O [Compound 1],0.14,126.94,118.5,18,110,,,,,,
CCC(C)n1ccnc1C=C1CN(C)CC(=Cc2nccn2C(C)CC)C1=O (stereo not shown) [Compound 2],0.01,111.1,95.9,,6630,,,,,,
CN1CC(=Cc2cnn(C)c2)C(=O)C(=Cc2cnn(C)c2)C1 [Compound 3],1870,100.9,97.8,0.03,76000,0.0002,,,,,
CN1CC(=Cc2ccnn2C)C(=O)C(=Cc2ccnn2C)C1 [Compound 4],1.64,107.1,67.4,1.9,1020,0.18,,,,,
CN1CC(=Cc2nccs2)C(=O)C(=Cc2nccs2)C1 [Compound 5],0.046,51.7,21.6,4.7,420,,,,,,
CN1CC(=Cc2cscn2)C(=O)C(=Cc2cscn2)C1 [Compound 6],0.43,72.0,12.0,2.5,800,0.7,13,817,,,
Cc1nc(C=C2CN(C)CC(=Cc3coc(C)n3)C2=O)co1 [Compound 7],0.076,59.5,59.5,6.4,310,,,,,,
"Cc1cc(/C=C2\CCC/C(=C\c3cc(C)on3)C2=O)no1 [Compound 8, (2E,6E)-2,6-Bis((5-methylisoxazol-3-yl)methylene)cyclohexanone]",0.034,,,,140,,,205,12.8,,
Cc1cc(C=C2CN(C)CC(=Cc3cc(C)no3)C2=O)on1 [Compound 9],0.69,75.3,27.8,,130,0.4,,,,,
CC(C)n1ccnc1C=C1CCCC(=Cc2nccn2C(C)C)C1=O [Compound 10],0.1,114.9,85.1,,160,,,,,,
CCC(C)n1ccnc1C=C1CCCC(=Cc2nccn2C(C)CC)C1=O (stereo not shown) [Compound 11],0.25,100,100,2,830,,,,,,
CC(C)Cn1ccnc1C=C1CCCC(=Cc2nccn2CC(C)C)C1=O [Compound 12],0.36,100,94.5,4.2,470,0.8,,,,,
Cn1cc(C=C2CCCC(=Cc3cnn(C)c3)C2=O)cn1 [Compound 13],90,97,100,0.015,130000,0.003,,,,,
Cn1nccc1C=C1CCCC(=Cc2ccnn2C)C1=O [Compound 14],0.73,88,71.4,7.6,260,0.41,,,,,
O=C1C(=Cc2nccs2)CCCC1=Cc1nccs1 [Compound 15],0.12,78,9.7,18,110,,,,,,
O=C1C(=Cc2cscn2)CCCC1=Cc1cscn1 [Compound 16],0.075,79,15.8,16.5,120,,,,,,
Cc1nc(C=C2CCCC(=Cc3coc(C)n3)C2=O)co1 [Compound 17],1.65,100,59.5,1,1970,0.18,,,,,
"Cc1cc(/C=C2\CCC/C(=C\c3cc(C)on3)C2=O)no1 [Compound 18, (2E,6E)-2,6-Bis((5-methylisoxazol-3-yl)methylene)cyclohexanone]",0.07,,,,71,,19,552,,32,15.9
Cc1cc(C=C2CCCC(=Cc3cc(C)no3)C2=O)on1 [Compound 19],0.34,95,15.9,,54,0.9,,,,,

SMILES,IC50 [1] [µM],"HeLa Cell viability after treatment with analog (% viability) [2, 5] [%]","HeLa Cell viability after treatment with analog (% viability) [2, 6] [%]",IC50 (curcumin)/IC50 (analog) [3],IC50 [3] [nM],IC50 (curcumin)/IC50 (analog) [1],IC50 (curcumin)/IC50 (analog) [4],IC50 [4] [nM],HeLa Cell viability after treatment with analog (% viability) ([2]; 10 µM) [%],"viability at 1 µM [2, 7] [%]","viability at 10 µM [2, 7] [%]"
CC(C)n1ccnc1/C=C/C(=O)/C=C/c1nccn1C(C)C [Compound 20],0.054,35,11.4,,89,,25,418,,,
Cn1nccc1/C=C/C(=O)/C=C/c1ccnn1C [Compound 23],0.16,59,82.6,,1900,,,,,,
O=C(/C=C/c1nccs1)/C=C/c1nccs1 [Compound 24],0.055,68,19.2,,68,,,,,,
O=C(/C=C/c1cscn1)/C=C/c1cscn1 [Compound 25],0.096,89,13.7,,94,,,,,,
Cc1nc(/C=C/C(=O)/C=C/c2coc(C)n2)co1 [Compound 26],0.75,100,65.9,2.4,840,0.4,,,,,
Cc1cc(/C=C/C(=O)/C=C/c2cc(C)on2)no1 [Compound 27],0.042,48,15.9,7.9,250,,,296,,,
O=C(/C=C/c1cncs1)/C=C/c1cncs1 [Compound 29],,77,,,,,,,,,
Cc1noc(C)c1/C=C/C(=O)/C=C/c1c(C)noc1C [Compound 30],,67,,,,,,,,,
Cc1csc(/C=C/C(=O)/C=C/c2nc(C)cs2)n1 [Compound 31],,52,,,,,,,,,
CCC(CC)n1ccnc1/C=C/C(=O)/C=C/c1nccn1C(CC)CC [Compound 32],,3.4,,,,,,250,,,
CC(C)CCn1ccnc1/C=C/C(=O)/C=C/c1nccn1CCC(C)C [Compound 33],,3.0,,,,,,230,,,
CCCC(C)n1ccnc1/C=C/C(=O)/C=C/c1nccn1C(C)CCC (stereo not shown) [Compound 34],,7.7,,,,,,150,,,
CCCCCCn1ccnc1/C=C/C(=O)/C=C/c1nccn1CCCCCC [Compound 35],,6.1,,,,,18,590,,,
O=C(/C=C/c1ccncc1F)/C=C/c1ccncc1F [Compound 36],,25.6,,,,,,,,,
O=C(/C=C/c1cocn1)/C=C/c1cocn1 [Compound 37],,72.9,,,,,,,,,
Cn1cc(/C=C/C(=O)/C=C/c2cnn(C)c2)cn1 [Compound 38],,92.8,,,,,,,,,
CC(C)Cn1c(/C=C/C(=O)/C=C/c2nc3ccccc3n2CC(C)C)nc2ccccc21 [Compound 41],,5.72,,,,,,321,,,
CCC(CC)n1c(/C=C/C(=O)/C=C/c2nc3ccccc3n2C(CC)CC)nc2ccccc21 [Compound 45],,,,,,,15,696,,,
